Test results taken from PMC4047118, “BM-1197: A Novel and Specific Bcl-2/Bcl-xL Inhibitor Inducing Complete and Long-Lasting Tumor Regression In Vivo” (PLoS ONE, 2014).
Like-named read-outs stand apart in the source and are kept apart here. Blank lines part the entries; values can stand above or below the molecule they belong to.

Tests used:
[1] = tested on: MCL1-wild-type (WT) MEF cells; experiment: cell growth inhibition, WST assay, wild-type MEF; assay type: cell-based; conditions: Mus musculus, 72 h, 3 days
Experimental: (§1) All the SCLC cell lines were purchased from American Type Culture Collection (Manassas, VA) and cultured as recommended. All these cell lines were passaged fewer than 6 months after purchase. MCL1 knockout (MCL1^−/−) MEF cells were kindly provided by Dr. David Huang (The Walter and Eliza Hall Institute of Medical Research, Melbourne, Australia). Cell growth inhibition was evaluated by means of a WST-8 assay (Dojindo, Rockville, MD) as described previously. Mitochondrial membrane potential was determined by JC-1 staining using a JC-1 Mitochondrial Membrane Potential Assay kit (Cayman). Apoptosis analysis was performed using an Annexin V/propidium iodide (PI) apoptosis detection kit (Roche Applied Sciences, Indianapolis, IN).
(§2) (B) MCL1^−/− cells were treated with 100 nM of BM-1197 for 16 h and stained with Annexin V/PI for flow cytometry. […] They are given in the order upper left, upper right, lower left, lower right.

[2] = tested on: MCL1-deficient (MCL1−/−) MEF cells; experiment: cell growth inhibition, WST assay, MCL1-deficient MEF; assay type: cell-based, mouse; conditions: Mus musculus, MEF, 72 h; 3 days, WST assay
Experimental: as §1, §2

Bcl-xL [3] = target: T1, Bcl-xL (Mus musculus, UniProt Q64373); experiment: cellular thermal shift assay (CETSA), Bcl-xL; assay type: cell-based; conditions: 1 µM, 1 h, MEF MCL1−/− cells
T1 construct: endogenous in cells; host or cells: MEF MCL1-/- cells
T1 sequence (Q64373 whole entry): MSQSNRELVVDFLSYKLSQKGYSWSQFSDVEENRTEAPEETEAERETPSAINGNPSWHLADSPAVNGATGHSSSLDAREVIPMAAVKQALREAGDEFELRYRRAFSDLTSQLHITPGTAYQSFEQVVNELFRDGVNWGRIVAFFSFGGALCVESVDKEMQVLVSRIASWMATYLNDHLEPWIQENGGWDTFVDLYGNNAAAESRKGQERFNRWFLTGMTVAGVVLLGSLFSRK
Experimental: (§3) Drug-target engagement was assessed using CETSA as described by Molina et al.. Briefly, cells were treated with drugs for 1 h, then harvested, washed with PBS, and resuspended in PBS. The resuspended cells were freeze-thawed 4 times. The soluble fraction (lysate) was separated from cell debris by centrifugation at 20000×g for 20 minutes at 4°C and then analyzed by Western blots.
(§4) Drug-treated cells were heated at gradient temperature from 42°C to 62°C for 3 min then freeze-thawed 4 times. The soluble fractions of the lysed cells were analyzed by immunoblotting. (B) MEF MCL1^− ^/− cells were treated with drugs at the indicated doses for 1 h before collected for CETSA.

Bcl-2 [4] = target: T2, Bcl-2 (Mus musculus, UniProt P10417); experiment: cellular thermal shift assay (CETSA), Bcl-2; assay type: cell-based; conditions: 1 µM, 1 h, MEF MCL1−/− cells
T2 construct: endogenous in cells; host or cells: MEF MCL1-/- cells
T2 sequence (P10417 whole entry): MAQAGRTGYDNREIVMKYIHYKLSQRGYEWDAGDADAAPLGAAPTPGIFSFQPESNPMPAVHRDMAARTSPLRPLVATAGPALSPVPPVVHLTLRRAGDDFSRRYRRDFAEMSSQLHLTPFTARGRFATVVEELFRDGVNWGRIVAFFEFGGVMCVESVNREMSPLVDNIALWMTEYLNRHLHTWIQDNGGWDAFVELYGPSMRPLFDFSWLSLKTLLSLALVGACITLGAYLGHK
Experimental: as §3, §4

H146 = experiment: SCLC cell growth inhibition (WST-8), H146; assay type: cell-based; conditions: Homo sapiens
Experimental: as §1
Data are representative of two independent experiments.

H1417 = experiment: SCLC cell growth inhibition (WST-8), H1417; assay type: cell-based; conditions: Homo sapiens, NCI-H1417; 96-h incubation, means ± SD (n = 3–6)
Experimental: as §1

H1963 = experiment: SCLC cell growth inhibition (WST-8), H1963; assay type: cell-based; conditions: Homo sapiens, NCI-H1963; 96-h incubation, means ± SD (n = 3–6)
Experimental: as §1

H211 = experiment: SCLC cell growth inhibition (WST-8), H211; assay type: cell-based; conditions: Homo sapiens, NCI-H211; 96-h incubation, means ± SD (n = 3–6)
Experimental: as §1

H187 = experiment: SCLC cell growth inhibition (WST-8), H187; assay type: cell-based; conditions: Homo sapiens, NCI-H187; 96-h incubation, means ± SD (n = 3–6)
Experimental: as §1

DMS79 = experiment: SCLC cell growth inhibition (WST-8), DMS79; assay type: cell-based; conditions: Homo sapiens, DMS-79; 96-h incubation, means ± SD (n = 3–6)
Experimental: as §1

H889 = experiment: SCLC cell growth inhibition (WST-8), H889; assay type: cell-based; conditions: Homo sapiens, NCI-H889; 96-h incubation, means ± SD (n = 3–6)
Experimental: as §1

SW1271 = experiment: SCLC cell growth inhibition (WST-8), SW1271; assay type: cell-based; conditions: Homo sapiens, 96-h incubation, means ± SD (n = 3–6)
Experimental: as §1

DMS53 = experiment: SCLC cell growth inhibition (WST-8), DMS53; assay type: cell-based; conditions: Homo sapiens, DMS-53; 96-h incubation, means ± SD (n = 3–6)
Experimental: as §1

H82 = experiment: SCLC cell growth inhibition (WST-8), H82; assay type: cell-based; conditions: Homo sapiens, NCI-H82; 96-h incubation, means ± SD (n = 3–6)
Experimental: as §1

DMS273 = experiment: SCLC cell growth inhibition (WST-8), DMS273; assay type: cell-based; conditions: Homo sapiens, DMS-273; 96-h incubation, means ± SD (n = 3–6)
Experimental: as §1

H196 = experiment: SCLC cell growth inhibition (WST-8), H196; assay type: cell-based; conditions: Homo sapiens, NCI-H196; 96-h incubation, means ± SD (n = 3–6)
Experimental: as §1

H146 xenograft tumors = experiment: H146 subcutaneous xenograft model; assay type: in vivo, SCID mice
Experimental: Tumor sizes were measured 2–3 times per week. Tumor growth inhibition was calculated by using the formula: 100% (mean volume of controls - mean volume of treated)/mean volume of controls.
Figure 10 In vivo antitumor activity of BM-1197. […] Data shown are mean ± SEM for 6–8 mice. (E & F) SCID mice bearing H146 or H1963 cells were treated with 10 mg/kg of BM-1197 IV for the indicated times. Tumor lysates were analyzed by immunoblotting.

Bcl-2 [5] = target: Bcl-2 (Homo sapiens, UniProt P10415); conditions: cited from earlier work
Bcl-2 (Homo sapiens, UniProt P10415), sequence (P10415 whole entry): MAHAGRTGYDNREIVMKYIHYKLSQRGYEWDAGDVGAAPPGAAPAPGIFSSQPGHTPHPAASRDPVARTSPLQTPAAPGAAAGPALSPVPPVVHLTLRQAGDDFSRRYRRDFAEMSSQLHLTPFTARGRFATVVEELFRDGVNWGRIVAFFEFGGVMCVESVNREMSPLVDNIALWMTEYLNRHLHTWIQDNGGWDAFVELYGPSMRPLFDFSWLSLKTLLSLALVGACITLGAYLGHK

Bcl-xL [6] = target: Bcl-xL (Homo sapiens, UniProt Q07817); conditions: cited from earlier work
Bcl-xL (Homo sapiens, UniProt Q07817), sequence (Q07817 whole entry): as the sequence (Q64373 whole entry) above, with E40G, A43S, R45M, S168A, D193E counted along it

[7] = tested on: four small-cell lung cancer cell lines sensitive to ABT-263; set-up: method as in PMID 23448298; conditions: cited from earlier work
[8] = tested on: H146 small-cell lung cancer xenograft; set-up: method as in PMID 23448298; conditions: H146 xenograft in SCID mice; cited from earlier work

thermal stability of Bcl-xL protein (Bcl-xL [3]): enhanced | thermal stability of Bcl-2 protein (Bcl-2 [4]): enhanced | IC50 (H146; NCI-H146, 96 h, read-out: IC50 (1% FBS), H146, 4 days, WST assay, 1% FBS): 3.5 nM | IC50 (H146; NCI-H146, 96 h, read-out: IC50 (1% FBS+3% HSA), H146, 4 days, WST assay, 1% FBS+3% HSA): 83 nM | IC50 (H146; NCI-H146, 96 h, read-out: IC50 (10% FBS), H146, 4 days, WST assay, 10% FBS): 26.8 nM | IC50 (H146; NCI-H146, 96 h, read-out: IC50 (50% FBS), H146, 4 days, WST assay, 50% FBS): 75.2 nM | IC50 (H146; NCI-H146, 96-h incubation, means ± SD (n = 3–6), read-out: IC50 cell growth, H146): 24 ± 12 nM | IC50 (H1417): 79 ± 31 nM | IC50 (H1963): 30 ± 17 nM | IC50 (H211): 66 ± 50 nM | IC50 (H187): 70 ± 29 nM | IC50 (H889): 30 ± 11 nM | IC50 (SW1271): > 2000 nM | IC50 (H196): > 2000 nM
SMILES: CC1(C)CCC(c2ccc(Cl)cc2)=C(CN2CCN(c3ccc(C(=O)NS(=O)(=O)c4ccc(N[C@H](CCN5CCOCC5)CSc5ccccc5)c(S(=O)(=O)C(F)(F)F)c4)cc3)CC2)C1 [ABT-263, reference compound]
IC50 [1]: > 2000 nM | IC50 [2]: 41 ± 3 nM | IC50 (DMS79): 430 ± 343 nM | IC50 (DMS53): 197 ± 50 nM | IC50 (H82): > 2000 nM | IC50 (DMS273): > 2000 nM | tumors regrown 29 days after the last treatment (H146 xenograft tumors; 100 mg/kg daily oral dosing): Four out of 8 | tumors regrown 57 days after the last treatment (H146 xenograft tumors; 100 mg/kg daily oral dosing): 7 of the 8 | tumor regression (H146 xenograft tumors; 100 mg/kg daily oral dosing (5 days per week), 14 days after the start of the treatment): regressed H146 tumors to a barely palpable state | weight loss compared to control group (H146 xenograft tumors; all dose-schedules in H146 model, no other signs of toxicity): no statistically significant weight loss

SMILES: Cc1c(C(=O)NS(C)(=O)=O)c(-c2cccc(N3CCN(c4ccc(NS(=O)(=O)c5ccc(N[C@H](CCN(C)C)CSc6ccccc6)c([N+](=O)[O-])c5)cc4)CC3)c2)c(-c2ccc(Cl)cc2)n1C(C)C [BM-1074]
Ki (Bcl-2 [5]): < 1 nM | Ki (Bcl-xL [6]): < 1 nM | IC50 ([7]; four small-cell lung cancer cell lines sensitive to ABT-263, read-out: IC50 cancer cell growth): 1 to 2 nM | times more potent than ABT-263 ([7]; four small-cell lung cancer cell lines): > 10 times | tumor regression [8]: rapid, complete, and durable tumor regression
